Blank lines part the entries; values can stand above or below the compound they belong to.
Legend:
[1] = identical field strength (7T), commercial Gd(III) agent; cited from earlier work
[2] = EDTA reference value in competition experiments; cited from earlier work
[3] = In vivo MR imaging (biodistribution) after i.v. administration of Mn complexes; design: species or system mouse
Description: FIG. 4A. In vivo MRI in control mouse after i.v. administration of MnNTA.
FIG. 4B. MRI after i.v. administration of Mn:ETID (50 μL of 40 mM solution).
In vivo behavior was tested of two relatively strong (log K1>7) ligands for Mn(II) chelation, nitrilotriacetic acid (NTA), closely related to EDTA, and […] (3,4-DBA).
This in vivo behavior was also what is observed for the FDA-approved agent Teslascan. In the past, development of paramagnetic Mn complexes for MRI has been challenged by the inherent coordination lability of Mn(II) (e.g., Irving Williams series), resulting in the propensity of Mn(II) to be trans-metallated by other endogenous metals such as zinc in vivo. The only FDA-approved approved Mn(II) PM complex for MRI was Teslascan, which has now been discontinued. […] Contrast enhancement was therefore based on free Mn and confined to the liver.
Enhancement of the bowel is also noted but more variable, believed to represent elimination of the coordination complex from the gallbladder into the small intestine. […]
Finally, it is worth noting that free Mn is believed to be toxic neurologically if allowed to accumulate to high concentrations in certain neuronal populations. […] Since Mn accumulation in tissues is readily visualized with MRI, however, selective delivery of Mn-containing agents is easily monitored. […]

4T1 tumor = test: Dynamic contrast enhancement of 4T1 tumor after i.v. administration; type: in vivo; conditions: pilot data, versus paramagnetic coordination complex alone
Description: FIG. 5. Dynamic contrast enhancement of 4T1 tumor after i.v. admin of 1-hydroxybisphosphonate:Mn complex linked to HSP90 inhibitor as in Scheme 1C, 25 mg/kg. Graph on left depicts relative change in T1 enhancement in tumors after labeled drug (n=5) and after Mn:ETID complex alone (n=6).
Several synthetic strategies were used for labeling small molecule drugs either directly or via polyethyleneglycol (PEG) linkers. Two lead complexes, the first with a medronate analogue (Scheme 1B) via the amine-terminated PEG linker, and the second an etidronate analogue coupled through the COOH-terminated PEG linker (Scheme 1C), have now been synthesized, characterized and studied preliminarily in vivo.

[4] = FDA-approved Mn(II) agent, prior experience; cited from earlier work

Compound: O=C([O-])CN1CCN(CC(=O)[O-])CCN([C@H](CO)[C@H](O)CO)CCN(CC(=O)[O-])CC1.[Gd+3] (racemic) [gadobutrol]
r1 (relaxivity stated as equivalent) [1]: 5.2 mM⁻¹ s⁻¹

Compound: O=C(O)CN(CCN(CC(=O)O)CC(=O)O)CC(=O)O [EDTA]
log K1 [2]: 26

cardiac enhancement ([3]; after i.v. administration, indicates free Mn released into blood pool): cardiac enhancement was also seen
Compound: O=C(O)CN(CC(=O)O)CC(=O)O [NTA, nitrilotriacetic acid]
biodistribution on in vivo MR imaging ([3]; mouse, in vivo, iv): consistent with release of free Mn and hepatocellular uptake

Compound: Cc1nn(-c2ccc(C(N)=O)c(NCCCOCCOCCOCCOCCOCCCNC(=O)CC(P(=O)(O)O)P(=O)(O)O)c2)c2c1C(=O)CC(C)(C)C2 [Scheme 1B]
enhancement in 4T1 tumors (4T1 tumor): progressive accumulation of enhancement in 4T1 tumors that is greater than what is seen for the paramagnetic coordination complex alone

Compound: Cc1nn(-c2ccc(C(N)=O)c(NCCCOCCOCCOCCOCCOCCCC(=O)NCCCC(O)(P(=O)(O)O)P(=O)(O)O)c2)c2c1C(=O)CC(C)(C)C2 [Scheme 1C]
enhancement in 4T1 tumors (4T1 tumor): progressive accumulation of enhancement in 4T1 tumors that is greater than what is seen for the paramagnetic coordination complex alone

Compound: Cc1ncc(COP(=O)([O-])[O-])c(CN(CCN(CC(=O)[O-])Cc2c(COP(=O)([O-])[O-])cnc(C)c2[O-])CC(=O)[O-])c1[O-].[H+].[H+].[H+].[Mn+2].[Na+].[Na+].[Na+] [Teslascan]
in vivo distribution behaviour [4]: immediately distributed to the liver, releasing free Mn

— patent publication US11351275B2, “Metal complexes with bisphophonate or pyrophosphate useful as imaging agents” (Duke University, priority 2015, dated 2022)
